Key:
female rat = details: high-dose dexamethasone pretreatment; cited from earlier work
rat livers = experiment: Hepatoprotection by modulators of drug metabolism against ET-743; details: compared with dexamethasone
13762 tumor = experiment: Study of antitumor activity: 13762 tumor fragments implanted sc; assay type: in vivo, rat; details: for tumor weight inhibition (TWI): day 20, I3C 0.5% in diet from implantation, ET-743 40 μg/kg i.v. on day 6, female Fischer rats, weight from caliper diameters; for decrease of terminal tumor weight: tumors excised and weighed at termination of the experiment (day 20), I3C 0.5% diet, ET-743 40 μg/kg i.v.
Description: (§1) 13762 tumor fragments (100-200 mg weight) were implanted (sc) into the flank of female Fischer rats (100-120 g). […] Properties of the 13762 tumour have previously been described for example in Braunschweiger P. G., and Schiffer L. M. 1980, J. Natl. Cancer Inst., 64: 671-674: “Growth kinetics of mammary tumor 13762 in rats previously cured by chemotherapy”. Tumor weight (TW) was calculated on each day via tumor diameters, using a Vernier caliper and the formula: TW (in mg)=tumor volume (mm3)=d^2×D/2, in which d and D represent the shortest and longest diameter, respectively. Rats (9-10 per group) received I3C in their diet (0.5%) from the day of tumor implantation to the end of the experiment. ET-743 (40 μg/kg, i.v.) was administered on day 6 post tumor implantation.

female Wistar rats = experiment: Study of hepatotoxicity: protection against ET-743-induced liver damage; assay type: in vivo, rat
Description: I3C at 0.1 or 0.5% or di-indolyl methane (DIM) at 0.2% were added to the diet of female Wistar rats (230-260 g) seven days prior to treatment with a hepatotoxic dose of ET-743 (40 μg/kg, iv. via the lateral tail vein). This amount constitutes doses equivalent to approximately 80 and 400 mg/kg I3C per day. Control animals received the unaltered diet and/or water as the vehicle for ET-743. The dose of DIM was based on the following consideration: DIM is the product of the condensation of two molecules of I3C, therefore assuming all of the I3C in the 0.5% dose group dimerises to form DIM, the maximal amount of DIM which could theoretically be generated is half of the amount of I3C in the diet. Each treatment group comprised 4 animals. Hepatic changes were studied by assessment of alterations in plasma levels of bilirubin and liver enzymes ALP and aspartate aminotransferase (AST) and by conventional histopathological investigation of liver tissue.

female Fischer rats = experiment: Protection against pathological manifestations of ET-743 in the liver of tumor-bearing Fischer rats; assay type: in vivo; details: 0.5% dietary I3C, compared with Wistar rat
Description: as §1

[1] = Study of ET-743 levels in liver and plasma (HPLC-ESI-MS/MS); assay type: in vivo, rat; details: for AUC of ET-743 in liver (0-24 h after dosing), mean: rat liver; for AUC of ET-743 in plasma (0-24 h after dosing), mean: rat plasma
Description: We tested the hypothesis that I3C pretreatment alters clearance of ET-743 from plasma and liver in vivo. Blood samples and liver tissue were collected from rats before and up to 24 h after administration of ET-743 (40 μg/kg iv.) with or without treatment with I3C (0.5% in the diet) given from 6 days prior to ET-743. Blood samples (by cardiac puncture) and liver tissue were collected before and at 0.5, 1, 3, 6, 12 and 24 h post treatment. Blood was placed in heparinized tubes, and plasma was obtained by centrifugation. An aliquot (0.3 ml) was mixed with 0.7 ml ammonium acetate buffer (0.2 M, pH 5.0). Liver tissue was homogenized (1:1) in water. Levels of ET-743 were measured by HPLC coupled to electrospray ionization tandem mass spectrometry in the plasma and liver samples.

patients = details: prolonged infusion over 24-72 hr; cited from earlier work
[2] = test system: mice, rats, dogs and monkeys; details: plasma liver-specific enzymes, cholangitis; cited from earlier work
[3] = test system: human tumour xenografts grown in athymic mice; details: including melanoma and ovarian and breast carcinoma; cited from earlier work
[4] = I3C 0.1% in diet plus ET-743 40 μg/kg iv
[5] = ET-743 40 μg/kg iv in combination with I3C (0.5% in the diet from 6 days prior)
[6] = ET-743 alone, 40 μg/kg iv, female Wistar rats

## C[C@@H]1C[C@H]2[C@@H]3CCC4=CC(=O)C=C[C@]4(C)[C@@]3(F)[C@@H](O)C[C@]2(C)[C@@]1(O)C(=O)CO [dexamethasone]
Female rat
  hepatic levels of ET-743 after pretreatment: dramatic reduction

## O=c1cc(-c2ccccc2)oc2ccc3ccccc3c12 [β-naphthoflavone]
Rat livers
  amelioration of ET-743 mediated hepatotoxicity: persisted only for a short term

## OCc1c[nH]c2ccccc12 [I3C, 1H-indole-3-methanol]
13762 tumor
  tumor weight inhibition (TWI): 35%
  decrease of terminal tumor weight: 43%
Female Wistar rats; I3C 0.1% in diet (approx. 80 mg/kg per day) from seven days prior to ET-743 40 μg/kg iv
  plasma bilirubin levels compared to ET-743 alone: moderately reduced
Female Wistar rats; [4]
  AST and ALP activity compared with levels induced by ET-743 alone: did not decrease
  pathological manifestations of liver damage compared to ET-743 only: only marginally less severe
Female Wistar rats; I3C 0.5% in diet (approx. 400 mg/kg per day) plus ET-743 40 μg/kg iv
  protection as reflected by the biochemical indices: complete
Female Wistar rats; I3C 0.5% in diet plus ET-743 40 μg/kg iv, 3 and 9 days
  protection adjudged on the basis of liver pathology: substantial, albeit not complete
Female Wistar rats; consumption of I3C on its own in the diet
  weight of the animals or liver function (biochemical indices or pathology): did not affect
Female Fischer rats
  protection against the pathological manifestations of ET-743 in the liver: same degree of protection

## COc1cc2c(cc1O)CCN[C@]21CS[C@@H]2c3c(OC(C)=O)c(C)c4c(c3[C@H](COC1=O)N1C2C2c3c(cc(C)c(OC)c3O)C[C@@H]([C@@H]1O)N2C)OCO4 (stereo partly shown) [ET-743, Ecteinascidin 743]
[1]; [5]
  AUC of ET-743 in liver (0-24 h after dosing), mean: 563 ngxh/ml
  AUC of ET-743 in plasma (0-24 h after dosing), mean: 1.9 ngxh/ml
[1]; ET-743 alone, 40 μg/kg iv
  AUC of ET-743 in liver (0-24 h after dosing), mean: 280 ngxh/ml
  AUC of ET-743 in plasma (0-24 h after dosing), mean: 4.7 ngxh/ml
patients
  side effects in patients: myelotoxic and hepatotoxic
13762 tumor
  tumor weight inhibition (TWI): 62%
  decrease of terminal tumor weight: 54%
[2]
  side effect in preclinical acute toxicity studies: liver toxicity
[3]
  antineoplastic activity: potent
Female Wistar rats; [6]
  activities of ALP and AST: elevated
  plasma levels of bilirubin: dramatically raised
Female Wistar rats; ET-743 alone, 40 μg/kg iv, day 3 and day 9
  liver pathology: severe bile duct damage on day 3 and biliary sclerosis on day 9

## CCC1(c2ccccc2)C(=O)NC(=O)NC1=O [phenobarbitone]
Rat livers
  amelioration of ET-743 mediated hepatotoxicity: weak

## CC(=O)N[C@@H](CS)C(=O)O [N-acetylcysteine]
Rat livers
  amelioration of ET-743 mediated hepatotoxicity: failed to protect

Source: patent US20070004691A1, “Antitumoral combinations containing et-743 and a cruciferous and a cruciferous indole compound” (priority 2003, published 2007)
